For data set [1], the system named is MCF7 cells. Description: MCF7 cell viability assay (CellTiter-Glo). Type of data set: cell-based, human. Conditions: for IC50 / EC50: Homo sapiens; for EC50: absence of exogenous estradiol, Figure 1E, read-out: MCF7 cell viability EC50 (-E2).
The subject of data set [2] is MCF7 ER.WT cells. Kind of data set: Cell viability, MCF7 ER.WT cells (7 days). The class given is cell-based. As to conditions: Homo sapiens; for EC50: absence of estrogen; for IC50: presence of estrogen (0.1 nM), read-out: Cell viability IC50, ER.WT +E2.
Data set [3] addresses T1, GR (Homo sapiens, UniProt P04150).
T1 sequence (P04150 1-777): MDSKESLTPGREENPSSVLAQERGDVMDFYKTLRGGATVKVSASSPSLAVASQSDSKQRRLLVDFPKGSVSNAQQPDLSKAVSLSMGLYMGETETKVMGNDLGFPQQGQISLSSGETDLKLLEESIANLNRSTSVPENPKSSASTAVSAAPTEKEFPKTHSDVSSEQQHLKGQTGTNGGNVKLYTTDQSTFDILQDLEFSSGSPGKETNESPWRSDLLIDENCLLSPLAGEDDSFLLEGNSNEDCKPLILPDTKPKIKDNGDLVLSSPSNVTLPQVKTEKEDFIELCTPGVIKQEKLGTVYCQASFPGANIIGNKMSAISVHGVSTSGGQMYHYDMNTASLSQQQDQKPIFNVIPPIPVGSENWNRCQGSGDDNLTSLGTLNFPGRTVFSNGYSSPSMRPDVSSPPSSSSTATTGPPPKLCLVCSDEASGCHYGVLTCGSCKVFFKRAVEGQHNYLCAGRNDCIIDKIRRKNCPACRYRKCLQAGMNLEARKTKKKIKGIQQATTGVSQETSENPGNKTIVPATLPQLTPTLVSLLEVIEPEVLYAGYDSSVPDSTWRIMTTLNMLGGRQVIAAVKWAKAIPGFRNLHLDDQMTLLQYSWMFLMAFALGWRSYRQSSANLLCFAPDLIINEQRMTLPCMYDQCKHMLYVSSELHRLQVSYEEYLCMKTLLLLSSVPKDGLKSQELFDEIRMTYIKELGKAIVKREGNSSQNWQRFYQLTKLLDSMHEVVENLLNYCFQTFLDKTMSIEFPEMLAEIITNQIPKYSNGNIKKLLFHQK
Kind of data set: GR competitive radioligand binding assay. As for the experimental part:
Reactions were conducted in 96-well plates in TEGM (10 mM Tris-HCl pH 7.2, 1 mM EDTA, 10% glycerol, 1 mM β-mercaptoethanol, 10 mM sodium molybdate). […] All reactions were set up in duplicates and incubated at 4°C overnight. Receptor-bound ^3H-DEX was isolated by ultrafiltration using a Unifilter-96 GF/C filter plate (Perkin Elmer), eluted in 30 µL Microscint-20 and quantified using a scintillation counter (Top Count).

For data set [4], the system named is Ishikawa endometrial cells. Description: Alkaline phosphatase activity in Ishikawa endometrial cells. The class given is cell-based, human. Conditions: absence of estrogen.
Data set [5] has as its system uterus of juvenile rats. Kind of data set: Juvenile rat uterus assays. Type of data set: in vivo, Sprague Dawley rats. Conditions: for Uterine wet weight: tamoxifen 60 mg/kg orally once a day for 3 days, GDC-0810 0.1 or 10 mg/kg, relative to vehicle control; for Uterine wet weight / Endometrial epithelial cell morphology (histology, endometrial cell height): fulvestrant 50 mg/kg; for Endometrial epithelial cell morphology (histology, endometrial cell height): tamoxifen 60 mg/kg, GDC-0810 0.1 and 10 mg/kg. The text has this:
[…] Rats were euthanized 4 hr after the final dose. Uteri were then dissected, weighed and fixed for histological examination. A small portion of tissue was saved prior to fixation for mRNA isolation and gene expression analysis.
H&E stained sections from bilateral representative uterine horn cross-sections were examined from two animals treated with the compounds shown. Endometrial cell height was digitally measured from the basement membrane to the apical (luminal) surface (orange line), using a digitally scanned image at 20X magnification. Obliquely cut areas were avoided. Three digital measurements were taken from each section (n = 6).
Estrogen receptor was detected using the mouse monoclonal anti-ER (clone 1D5, Dako), incubated for 60 min at RT at a dilution of 0.5 µg/ml, and visualized after secondary rabbit anti-mouse antibody binding with Powervision DAB (Leica Powersystems). H-scores were estimated manually, incorporating both intensity and percentage of positive nuclei, using the following formula: (0 x% negative)+(1 x% weak)+(2 x% moderate)+(3 x% strong)

In data set [6] the target is T2, PR-B (Homo sapiens, UniProt P06401).
T2 construct: cloning full-length human PRb into pCDNA; expressed in transfected cells; host or cells: HEPG2
T2 sequence (P06401 1-933): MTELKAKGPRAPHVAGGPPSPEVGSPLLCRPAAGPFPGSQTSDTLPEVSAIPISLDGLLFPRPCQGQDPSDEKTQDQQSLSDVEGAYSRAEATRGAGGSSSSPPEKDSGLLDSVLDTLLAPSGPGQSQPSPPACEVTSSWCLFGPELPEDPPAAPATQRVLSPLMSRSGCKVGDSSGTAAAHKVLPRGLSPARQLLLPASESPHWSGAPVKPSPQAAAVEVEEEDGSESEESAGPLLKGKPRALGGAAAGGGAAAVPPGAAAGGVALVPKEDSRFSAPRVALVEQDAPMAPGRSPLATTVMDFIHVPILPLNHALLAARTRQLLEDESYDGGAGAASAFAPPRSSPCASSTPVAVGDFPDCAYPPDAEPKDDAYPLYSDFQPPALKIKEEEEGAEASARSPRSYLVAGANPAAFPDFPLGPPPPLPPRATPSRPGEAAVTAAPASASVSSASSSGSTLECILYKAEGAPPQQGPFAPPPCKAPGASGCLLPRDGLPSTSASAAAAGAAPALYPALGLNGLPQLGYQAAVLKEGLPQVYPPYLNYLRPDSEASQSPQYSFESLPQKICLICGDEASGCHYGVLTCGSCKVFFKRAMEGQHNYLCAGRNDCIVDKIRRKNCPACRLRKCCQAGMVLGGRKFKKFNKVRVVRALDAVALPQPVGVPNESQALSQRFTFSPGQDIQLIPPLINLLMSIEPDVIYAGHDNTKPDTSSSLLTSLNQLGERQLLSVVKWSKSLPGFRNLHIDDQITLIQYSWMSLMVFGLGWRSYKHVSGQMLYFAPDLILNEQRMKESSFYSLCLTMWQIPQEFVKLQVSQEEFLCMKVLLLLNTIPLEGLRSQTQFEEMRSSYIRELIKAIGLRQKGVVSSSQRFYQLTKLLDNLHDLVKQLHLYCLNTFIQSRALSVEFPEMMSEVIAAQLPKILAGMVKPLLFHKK
Description: PR-B transcriptional reporter assay, agonist mode (HEPG2 cells). Type of data set: cell-based. As to conditions: % of maximal R5020-stimulated activity.

The mark [7] stands for this setting: 120 h, MCF7, 5 d incubation, read-out: Cell viability CellTiter-Glo IC50.
[8] abbreviates: MCF7, 120 h, read-out: MCF7 cell viability IC50 (+ 0.1nM E2), presence of 0.1 nM estradiol, 5 day, Figure 1F.
Setting [9] is: MCF7, 168 h, 7 days, read-out: Cell viability EC50, ER.WT -E2.

The structures appear in SMILES notation. Like-named read-outs stand apart in the source and are kept apart here.

For `C[C@]12CC[C@@H]3c4ccc(O)cc4C[C@@H](CCCCCCCCC[S+]([O-])CCCC(F)(F)C(F)(F)F)[C@H]3[C@@H]1CC[C@@H]2O` (some centres unmarked) [Fulvestrant], the IC50 in data set [1] (setting [7]) came to 0.56 ± 0.7 nM; in data set [1] (setting [8]), 9 nM; in data set [2] (MCF7, 168 h, 7 days) it was 23 nM; in data set [3] it was 817 nM. In addition, the EC50 was determined as 0.5 nM in data set [1] (MCF7, 120 h, 5 day) and 1.1 nM in data set [2] (setting [9]). Besides, in data set [1] (MCF7, 5 d incubation), the “Cell viability CellTiter-Glo Emax” value is 25.4 ± 3.7 % E2. In addition, the Alkaline phosphatase activity result in data set [4] is on record as “shows no such effect”. In addition, the “ER levels in the uterus (IHC)” value in data set [5] is listed as “robustly depletes ER”. Also, the Uterine wet weight entry in data set [5] is listed as “significant decrease in uterine weight”. Moreover, in data set [5], the “Endometrial epithelial cell morphology (histology, endometrial cell height)” value is reported as “remained cuboidal”.

As for `CC/C(=C(/c1ccc(/C=C/C(=O)O)cc1)c1ccc2[nH]ncc2c1)c1ccc(F)cc1Cl` [GDC-0810], the IC50 worked out at 2.5 ± 2.1 nM in data set [1] (setting [7]); 25 nM in data set [1] (setting [8]); 28 nM in data set [2] (MCF7, 168 h, 7 days). Moreover, the concentration giving a half-maximal response (EC50) in data set [1] (MCF7, 120 h, 5 day) turned out to be 1 nM; in data set [2] (setting [9]), 1 nM; in data set [2] (MCF7, Figure 6—figure supplement 1D, read-out: Cell viability EC50, ER.WT (-E2)), 0.7 nM. Further, the “Cell viability CellTiter-Glo Emax” value in data set [1] (MCF7, 5 d incubation) stood at 24.6 ± 3.3 % E2. This compound also gave an Emax in data set [6] of 0.35 ± 0.31%. The Alkaline phosphatase activity entry in data set [4] is given as “modestly increases alkaline phosphatase activity”. Further, the “ER levels in the uterus (IHC)” value in data set [5] is “only modestly reduces ER levels”. Besides, in data set [5], the Uterine wet weight entry was “did not significantly alter uterine wet”. Also, in data set [5], the “Endometrial epithelial cell morphology (histology, endometrial cell height)” value was “induced a cuboidal to columnar morphological change”.

In the case of `CC/C(=C(\c1ccc(O)cc1)c1ccc(OCCN(C)C)cc1)c1ccccc1` [4-OH Tam, 4-hydroxytamoxifen], the IC50 in data set [1] (setting [7]) was 0.53 ± 0.25 nM; in data set [1] (setting [8]), 30 nM; in data set [2] (MCF7, 168 h, 7 days), 19 nM; in data set [3] (3.0 nM 3H-dexamethasone, read-out: GR IC50), > 1800 nM. Besides, the EC50 in data set [1] (MCF7, 120 h, 5 day) came to 3.9 nM; in data set [2] (setting [9]) it was 3.2 nM. Also, the “Cell viability CellTiter-Glo Emax” value in data set [1] (MCF7, 5 d incubation) worked out at 48.0 ± 4.7 % E2. Besides, in data set [6], the Emax worked out at 0.39 ± 0.23%. Moreover, the Alkaline phosphatase activity entry in data set [4] is reported as “robustly increases alkaline phosphatase activity”.

By IC50 is commonly meant the concentration that inhibits the measured activity by half. What is called EC50 is the midpoint of the concentration-response curve. As usually defined, the Emax is the greatest response seen or fitted, relative to the assay's reference.

The values are drawn from publication PMC4961458 (eLife, 2016).
